In US8497269B2, “Phthalazine compounds as p38 map kinase modulators and methods of use thereof” (Amgen Inc., priority 2008, dated 2013):

Experiments:
[1] = tested on: TNF-α induced IL-8 production in human whole blood; assay: Inhibition of TNF-α induced IL-8 in 50% human whole blood; assay type: cell-based; details: 1 nM TNF-α, secreted IL-8, 16-18 hours, read-out: WB TNF/IL8 IC50
Procedure: Inhibition of TNF-α Induced IL-8 in 50% Human Whole Blood
Test compounds were evaluated in vitro for the ability to inhibit the production of secreted IL-8 by whole blood activated with TNF-α. Fresh human whole blood was obtained from healthy, non-medicated volunteers in sodium heparin tubes.
Compound Dilution—Assay Procedure
Test compounds are serially diluted 1:3 in DMSO and then diluted 1:250 into R10 (RPMI 1640, 10% human serum AB, 1× pen/strep/glutamine) to the 4× working concentration to be used in the assay. 100 ul heparinized whole blood is plated into wells of 96 well flat bottom plates. 50 ul of either 4× compound or DMSO control (Final DMSO concentration is 0.1%) are added to the appropriate wells. Plates are incubated for 1 hour at 37 degrees Celsius. 50 ul of 4×TNF-α (4 nM TNF-α, for a final concentration of 1 nM) or control (media alone) is added to the appropriate wells (Total volume=200 ul). Plates are incubated overnight (16-18 hours). 100 ul of supernatant is collected and stored in 96-well round bottom polypropylene plates at −80 degrees Celsius or assayed immediately for IL-8.
Cytokines are measured on antibody (Ab) sandwich ECL based 96-well detection plates. 20 ul of supernatant are added to plate and plate is sealed and shaken at RT for 1 hour. 130 ul of detection Ab cocktail is added and plates are sealed and shaken for 1 hour in the dark at RT. Plates are read on MSD Sector HTS instrument. Data are analyzed and IC50 values generated using Activity Base and Xl-fit programs.

human p38α = human p38α (Homo sapiens, UniProt Q16539); assay: Purified and activated recombinant human p38α assay (HTRF); assay type: biochemical; details: 1 nM p38α, 50 μM ATP, 100 nM GST-ATF2-Avitag, 1 hour at RT, read-out: p38a IC50 IC50
Procedure: Purified and Activated Recombinant Human p38α Assay
Kinase Reaction Buffer: Kinase reaction buffer for p38α HTRF assays consists of 50 mM Tris-pH 7.5, 5 mM MgCl2, 0.1 mg/mL BSA, 100 μM Na3VO4 and 0.5 mM DTT.
HTRF Detection Buffer: HTRF detection buffer contains 100 mM HEPES-pH 7.5, 100 mM NaCl, 0.1% BSA, 0.05% Tween-20, and 10 mM EDTA.
Serial Dilution of Compounds: Compounds were dissolved in 100% DMSO and serially diluted (3 fold, 10 point) in a polypropylene 96-well microtiter plate (drug plate). The final starting concentration of compounds in the p38α enzymatic assays was 1 μM. Columns 6 and 12 (HI controls and LO controls respectively) in the drug plate were reserved as controls and contained only DMSO. Kinase Reaction: The p38α kinase reactions were carried out in a polypropylene 96-well black round bottom assay plate in total volume of 30 μL kinase reaction buffer. Appropriate concentration of purified and activated enzyme (recombinant human) was mixed with indicated concentration of ATP and 100 nM GST-ATF2-Avitag, in the presence or absence (HI control) of Compound. See table below for actual concentrations. In the absence of substrate, the background was measured as LO control. The reaction was allowed to incubate for 1 hour at RT. Assay Reagent Concentrations: The final reagent concentrations were 1 nM p38α and 50 μM ATP. […] After 60 minutes incubation at room temperature, the assay plate was read in a Discovery Plate Reader. The wells were excited with coherent 320 nm light and the ratio of delayed ([…] post excitation) emissions at […] (native europium fluorescence) and 665 nm (europium fluorescence transferred to allophycocyanin—an index of substrate phosphorylation) was determined (Park et al, 1999). Data Analysis: The proportion of substrate phosphorylated in the kinase reaction in the presence of compound compared with that phosphorylated in the presence of DMSO vehicle alone (HI control) was calculated using the formula: % control (POC)=(compound−average LO)/(average HI−average LO)*100. Data (consisting of POC and inhibitor concentration in μM) was fitted to a 4-parameter equation (y=A+((B−A)/(1+((x/C)^D))), where A is the minimum y (POC) value, B is the maximum y (POC), C is the x (compound concentration) at the point of inflection and D is the slope factor, using a Levenburg-Marquardt non-linear regression algorithm.
The inhibition constant (Ki) of the inhibitor was estimated from the IC50 (compound concentration at the point of inflection C) using the Cheng-Prussof equation: Ki=IC50/(1+S/Km), where S is the ATP substrate concentration, and Km is the Michaelis constant for ATP as determined experimentally. All results were expressed as the mean±the standard error of the mean. Data acquisition and non-linear regression algorithms were performed using Activity Base v5.2 and XL-fit software v4.1 respectively. All data was archived using Activity Base v5.2 software.

human p38α, sequence (Q16539 whole entry): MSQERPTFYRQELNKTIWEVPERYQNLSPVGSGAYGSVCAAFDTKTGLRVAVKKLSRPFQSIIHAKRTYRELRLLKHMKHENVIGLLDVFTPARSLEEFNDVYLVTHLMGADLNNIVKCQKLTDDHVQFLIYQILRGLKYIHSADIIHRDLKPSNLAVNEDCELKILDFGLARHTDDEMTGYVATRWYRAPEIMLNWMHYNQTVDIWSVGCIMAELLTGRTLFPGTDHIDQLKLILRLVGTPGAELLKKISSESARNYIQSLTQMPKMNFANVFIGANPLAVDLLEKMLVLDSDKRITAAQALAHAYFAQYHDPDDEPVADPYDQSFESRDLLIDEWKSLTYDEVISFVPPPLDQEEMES

IC50 [1] [nM]	IC50 (human p38α) [nM]	SMILES
37	3.1	CC(Oc1nncc2cc(Nc3ccc(F)cc3F)ccc12)C(F)(F)F (racemic) [Example 6, N-(2,4-Difluorophenyl)-1-(1,1,1-trifluoropropan-2-yloxy)phthalazin-6-amine]
4.1	1.5	CC1CCCN1c1nncc2cc(Nc3ccc(F)cc3F)ccc12 (stereo not shown) [Example 1, N-(2,4-Difluorophenyl)-1-(2-methylpyrrolidin-1-yl)phthalazin-6-amine]
0.8	0.3	Cc1cc(S(C)(=O)=O)ccc1-c1nncc2cc(Nc3ccc(F)cc3)ccc12 [Example 2, N-(4-Fluorophenyl)-1-(2-methyl-4-(methylsulfonyl)phenyl)phthalazin-6-amine]
3.5	0.5	Cc1ccc(F)cc1Nc1ccc2c(-c3ccc(F)cc3C)nncc2c1 [Example 3, 1-(4-Fluoro-2-methylphenyl)-N-(5-fluoro-2-methylphenyl)phthalazin-6-amine]
66.9	1	Cc1cc(F)ccc1-c1nncc2cc(Sc3cccc(F)c3)ccc12 [Example 4, 1-(4-Fluoro-2-methylphenyl)-6-(3-fluorophenylthio)phthalazine]
3.9	1	CC(c1nncc2cc(Nc3ccc(F)cc3)ccc12)C(F)(F)F (stereo not shown) [Example 5, N-(4-Fluorophenyl)-1-(2,2,2-trifluoro-1-methylethyl)-6-phthalazinamine]
24	1.5	C[C@@H](Oc1nncc2cc(Nc3ccc(F)cc3F)ccc12)C(F)(F)F [Example 6a, N-(2,4-difluorophenyl)-1-(((1R)-2,2,2-trifluoro-1-methylethyl)oxy)-6-phthalazinamine]
89	4.6	C[C@H](Oc1nncc2cc(Nc3ccc(F)cc3F)ccc12)C(F)(F)F [Example 6b, N-(2,4-difluorophenyl)-1-(((1S)-2,2,2-trifluoro-1-methylethyl)oxy)-6-phthalazinamine]
2.4	0.4	CC(C)c1nncc2cc(Nc3ccc(F)cc3F)ccc12 [Example 7, N-(2,4-Difluorophenyl)-1-isopropylphthalazin-6-amine]
1.7	0.2	Cc1ccccc1-c1nncc2cc(Nc3ccc(F)cc3F)ccc12 [Example 8, N-(2,4-difluorophenyl)-1-(2-methylphenyl)-6-phthalazinamine]
1.5	0.2	Cc1ccccc1-c1nncc2cc(Nc3ccccc3)ccc12 [Example 9, 1-(2-methylphenyl)-N-phenyl-6-phthalazinamine]
0.5	0.3	Cc1cc(S(C)(=O)=O)ccc1-c1nncc2cc(Nc3ccc(F)cc3F)ccc12 [Example 10, N-(2,4-difluorophenyl)-1-(2-methyl-4-(methylsulfonyl)phenyl)-6-phthalazinamine]
1.5	0.4	Cc1cc(F)ccc1-c1nncc2cc(Nc3ccc(F)cc3)ccc12 [Example 11, 1-(4-fluoro-2-methylphenyl)-N-(4-fluorophenyl)-6-phthalazinamine]
0.8	0.5	Cc1cc(S(C)(=O)=O)c(F)cc1-c1nncc2cc(Nc3ccc(F)cc3F)ccc12 [Example 12, N-(2,4-difluorophenyl)-1-(5-fluoro-2-methyl-4-(methylsulfonyl)phenyl)-6-phthalazinamine]
9.9	0.5	Cc1cc(F)ccc1-c1nncc2cc(Nc3ccc(F)cc3C(F)(F)F)ccc12 [Example 13, 1-(4-fluoro-2-methylphenyl)-N-(4-fluoro-2-(trifluoromethyl)phenyl)-6-phthalazinamine]
6.6	0.7	Cc1cc(F)ccc1-c1nncc2cc(Nc3ncccc3C)ccc12 [Example 14, 1-(4-fluoro-2-methylphenyl)-N-(3-methyl-2-pyridinyl)-6-phthalazinamine]
11.4	1.5	Cc1cccc(Nc2ccc3c(-c4ccc(F)cc4C)nncc3c2)n1 [Example 15, 1-(4-fluoro-2-methylphenyl)-N-(6-methyl-2-pyridinyl)-6-phthalazinamine]
16.1	1.6	Cc1cc(F)ccc1-c1nncc2cc(Nc3ccccn3)ccc12 [Example 16, 1-(4-fluoro-2-methylphenyl)-N-2-pyridinyl-6-phthalazinamine]
6.7	5	CC1CCCN1c1nncc2cc(Nc3ccccc3)ccc12 (stereo not shown) [Example 17, 1-(2-methyl-1-pyrrolidinyl)-N-phenyl-6-phthalazinamine]
1.8	0.3	Cc1cc(F)ccc1-c1nncc2cc(Nc3cccc(F)c3C)ccc12 [Example 18, N-(3-fluoro-2-methylphenyl)-1-(4-fluoro-2-methylphenyl)-6-phthalazinamine]
2.2	0.3	Cc1cccc(Nc2ccc3c(-c4ccc(F)cc4C)nncc3c2)c1 [Example 19, 1-(4-fluoro-2-methylphenyl)-N-(3-methylphenyl)-6-phthalazinamine]
1.8	0.3	Cc1cc(F)ccc1Nc1ccc2c(-c3ccc(F)cc3C)nncc2c1 [Example 20, N,1-bis(4-fluoro-2-methylphenyl)-6-phthalazinamine]
3.2	0.5	Cc1cc(F)ccc1-c1nncc2cc(Nc3cccc(F)c3)ccc12 [Example 21, 1-(4-fluoro-2-methylphenyl)-N-(3-fluorophenyl)-6-phthalazinamine]
10.9	0.8	Cc1cc(F)ccc1-c1nncc2cc(Nc3ccc(F)cn3)ccc12 [Example 22, 1-(4-fluoro-2-methylphenyl)-N-(5-fluoro-2-pyridinyl)-6-phthalazinamine]
4.7	0.7	Cc1cc(S(C)(=O)=O)c(F)cc1-c1nncc2cc(Nc3ccc(F)cc3)ccc12 [Example 24, 1-(5-fluoro-2-methyl-4-(methylsulfonyl)phenyl)-N-(4-fluorophenyl)-6-phthalazinamine]
4.5	0.7	Cc1cc(S(C)(=O)=O)c(Cl)cc1-c1nncc2cc(Nc3ccc(F)cc3)ccc12 [Example 25, 1-(5-chloro-2-methyl-4-(methylsulfonyl)phenyl)-N-(4-fluorophenyl)-6-phthalazinamine]
4.2	0.7	Cc1cc(S(C)(=O)=O)c(Cl)cc1-c1nncc2cc(Nc3ccc(F)cc3F)ccc12 [Example 26, 1-(5-chloro-2-methyl-4-(methylsulfonyl)phenyl)-N-(2,4-difluorophenyl)-6-phthalazinamine]
2.7	0.7	Cc1cc(F)ccc1-c1nncc2cc(Nc3ccccc3)ccc12 [Example 27, 1-(4-fluoro-2-methylphenyl)-N-phenyl-6-phthalazinamine]
1.6	0.9	COc1ncccc1-c1nncc2cc(Nc3ccc(F)cc3)ccc12 [Example 28, N-(4-fluorophenyl)-1-(2-(methyloxy)-3-pyridinyl)-6-phthalazinamine]
